This note sets out measurements from ChEMBL document CHEMBL4251694 (ACS Med Chem Lett, 2018).

In one experiment the test system is Influenza A virus. As to the kind of experiment: Antiviral activity against Influenza A virus A/WSN/33 H1N1 harboring N31S mutant infected in MDCK cells assessed as reduction in virus-induced cytopathic effect by crystal violet staining based light-microscopic analysis. Type of experiment: functional, organism-based, A/WSN/1933(H1N1). A general note: Damage to the host cells serves as the signal in cytopathic effect assays.

The target of experiment [1] is Matrix protein 2 (Influenza A virus (A/Udorn/307/1972(H3N2)), UniProt P0DOF8, S31N). As to the kind of experiment: Binding affinity to Influenza A virus A/Udorn/72 M2 proton channel S31N mutant expressed in Xenopus laevis oocytes at pH 5.5 by two-electrode voltage clamp assay. Type of experiment: cell-based, Influenza A virus (A/udorn/1972(H3N2)). On the technique in general: In two-electrode clamp one electrode senses voltage and the other passes current.

Experiment [2] shares this target. As to the kind of experiment: Binding affinity to Influenza A virus A/Udorn/72 M2 proton channel S31N mutant by isothermal calorimetric titration. Further details: species or system Influenza A virus (A/udorn/1972(H3N2)). (In ITC the heat of successive injections is recorded.)

Regarding `C[C@@H](N)C12CC3CC(CC(C3)C1)C2`, in the experiment with Influenza A virus, the EC50 stood at 0.04 µM. On to `C[C@H](N)C12CC3CC(CC(C3)C1)C2`, for which the EC50 in the experiment on Influenza A virus amounted to 0.02 µM. On to `CC(C)(N)C12CC3CC(CC(C3)C1)C2`, for which the EC50 in the experiment with Influenza A virus was found to be 0.03 µM. The compound also gave an equilibrium dissociation constant (Kd) in experiment [1] of 444 µM. Turning to `CCC(N)(CC)C12CC3CC(CC(C3)C1)C2`, the EC50 with Influenza A virus worked out at 1.01 µM. Consider `CCCC(N)(CCC)C12CC3CC(CC(C3)C1)C2`, for which, in the experiment with Influenza A virus, the EC50 came to 1.06 µM. The figures for the Kd in experiment [1] and in experiment [2] were 1800 µM and over 10 µM, respectively.

For `NC12CC3CC(CC(C3)C1)C2` [AMANTADINE], in the experiment on Influenza A virus, the concentration giving a half-maximal response (EC50) worked out at 0.48 µM.

Turning to `CCOC(=O)C1=C[C@@H](OC(CC)CC)[C@H](NC(C)=O)[C@@H](N)C1` [OSELTAMIVIR], the EC50 with Influenza A virus turned out to be 0.02 µM. In the case of `CC(N)C12CC3CC(CC(C3)C1)C2` (stereo unspecified) [RIMANTADINE], the EC50 in the experiment with Influenza A virus worked out at 0.04 µM.

Broadly, the EC50 is the concentration that produces a half-maximal response. What is called Kd is the concentration at which binding is half-saturated.
